Measured values reported in US20250136722A1, “CYTOTOXICITY TARGETING CHIMERAS” (GLAXOSMITHKLINE INTELLECTUAL PROPERTY DEVELOPMENT LIMITED, priority 2021, published 2025).
Where “and” joins values, the source holds several entries; their conditions need not be identical. Equal values may be shown once.

What was measured:
[1] = test system: endogenous target monocytes in human PBMC; experiment: PBMC ex vivo monocyte depletion flow cytometry assay (Example 200); type: cell-based; conditions: with anti-cotinine antibody SEQ ID NO: 11/12, 18-24 hours, read-out: Ex Vivo Depletion Assay pEC50 (converted)
Procedure: A human PBMC (peripheral blood mononuclear cells) monocyte depletion flow cytometry assay was developed to screen compounds in a 384-well plate format. This assay incorporated endogenous natural killer cells to deplete endogenous target monocytes.
To screen compounds in the human PBMC monocyte depletion flow cytometry assay, 11-point dose-response curves were made from 1 mM stocks in neat DMSO by serially diluting an ARM compound of Formula (I) four-fold into a 384-well plate row-wise. These serially diluted compounds were then stamped into a flat bottom polypropylene 384-well plate (Greiner Bio-One) at 100 nL/well. Fifty microliters of 30 μg/mL anti-cotinine antibody having a heavy chain sequence of SEQ ID NO: 11 and a light chain sequence of SEQ ID NO: 12 (rabbit variable region with human IgG1 Fc domain containing a DE mutation (S239D/1332E)) that had been diluted in assay medium (RPMI 1640 (Gibco) containing 10% fetal bovine serum (Gibco), 1% Glutamax (Gibco) and 1% sodium pyruvate (Corning) was added to the wells of the plate. The plate was centrifuged for 1 min at 500 rpm (revolutions per minute) and then shaken for 5 min at room temperature. The plate was incubated for 15 minutes at 37° C./5% CO2.
Frozen PBMC cells (HemaCare BioResearch) were thawed and centrifuged at 1,200 rpm for 4 minutes. The cells were diluted to a cell density of 2×10^6 cells/mL in assay medium. Fifty microliters of the diluted cells were added to the wells of the plate. The plate was centrifuged for 1 min at 500 rpm and incubated for 18-24 hours at 37° C./5% CO2.
After 18-24 hours incubation, 2 μL of 6.25 μg human FC block (BD Pharmingen) that was diluted in assay medium was added to the wells of the plate. The plate was centrifuged for 1 minute at 500 rpm and then incubated at room temperature for 15 minutes. Five microliters of 750 nM Helix NP NIR (Biolegend) that had been diluted in assay medium was added to the wells of the plate. Nine microliters of antibody cocktail containing 1/5 diluted fluorescein isothiocyanate (FITC) labeled anti-CD45 antibody (Beckman Coulter), PC7 labeled anti-CD14 antibody (Beckman Coulter) and phycoerythrin (PE) anti-CD4 antibody (Beckman Coulter) was then added to the wells of the plate. The plate was centrifuged for 1 min at 500 rpm and incubated for 30 minutes at 4-8° C. Samples from the plate were run on BD FACS Canto II flow cytometer and data was analyzed using FlowJo software.
ARMs compounds of Formula (I) of the invention were tested for the ability to deplete monocytes in the above assay in one or more experimental runs and the results are shown in Table 3 below. Potency of the compounds of the invention is reported as a pEC50 value. The pEC50 value is the negative log of the EC50 value, wherein the EC50 value is the half maximal effective concentration measured in molar (M). For compounds tested in more than one experimental run, the pEC50 value is reported as an average or as the individual values measured

[2] = target: T1, CHOK1 cells engineered to overexpress human CCR2 (Homo sapiens, UniProt P41597); experiment: Antibody dependent cellular cytotoxicity (ADCC) reporter assay (Example 199); type: cell-based; conditions: with anti-cotinine antibody SEQ ID NO: 11/12, CHOK1-human CCR2 target cells, Jurkat FcγRIIIa NFAT-luciferase reporter cells, 12-18 hours
T1 construct: expressed in transfected cells; host or cells: CHOK1 cells
In short: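 CHOK1-hCCR2 target cells are co-incubated for 12–18 h with Jurkat FcγRIIIa/NFAT-luciferase reporter cells, ARM compound (1 pM–10 μM) and anti-cotinine antibody with a DE-mutant human IgG1 Fc (0.01–200 μg/mL). Luminescence is expressed as signal:background against no-compound wells; EC50 comes from nonlinear fit and is reported as pEC50, averaged across runs.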

[3] = target: Anti-cotinine antibody (SEQ ID NO: 11 / SEQ ID NO: 12, rabbit variable region with human IgG1 Fc domain); experiment: Binding of anti-cotinine antibody to ARM compounds by SPR, Biacore T200, 37° C. (Example 202); conditions: pH 7.4, rabbit variable region/human IgG1 Fc antibody captured on protein A
In short: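 Antibody captured on protein A chip. Compounds injected (3-fold, 5-point, top 200 nM) at 100 μL/min with 200 s association and 2000 s dissociation, at 37° C. in HEPES pH 7.4 buffer with 1% DMSO. Double-referenced data fit to 1:1 kinetics. Kd = koff/kon, reported as pKd, averaged over runs.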

[4] = target: human alpha1 nicotinic acetylcholine (nACh) receptor (Homo sapiens, UniProt P02708+Q07001); experiment: Nicotinic acetylcholine receptor antagonism assay, IONFlux automated patch clamp (Example 203); type: cell-based; conditions: for Emax at 10 µM: maximum percentage antagonism at maximum concentration tested 10 μM, read-out: Maximum Response (%); for IC50: nAChR antagonism, ACh stimulated, patch clamp
In short: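 Human α1 nAChR-expressing cells were preincubated with compound (top 10 μM or 100 μM), then stimulated with 10 mM ACh; peak currents were recorded by IONFlux automated patch clamp. Percent inhibition versus ACh-alone control was vehicle- and rundown-corrected, then fitted to give IC50, with maximal antagonism at the top concentration; recordings with control current <500 pA were excluded.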

[5] = test system: CCR2 expressing cells (CD11b+Ly6c+ Hi) in peripheral blood; experiment: In vivo depletion assay, flow cytometry of peripheral blood (Example 201); parameters: species or system Human CCR2 (hCCR2) knock-in mice (C57 background); conditions: hCCR2 knock-in mice; IV 0.1 mpk compound + 10 mpk anti-cotinine antibody (SEQ ID NO: 13/14); peripheral blood at 48 hr
Procedure: Stock solution preparation: Stock solutions of compounds of Formula (I) were prepared at 20 mg/mL and 100 mg/mL in DMSO for PK/PD and dose tolerability studies respectively. Stock solutions were stored at −20° C. until further usage.
Formulations preparation: On the day of experiment, the stock solution of the compound of Formula (I) was removed from storage at −20° C. and thawed at room temperature. Anti-cotinine antibody having a heavy chain sequence of SEQ ID NO: 13 and a light chain sequence of SEQ ID NO: 14 (rabbit variable region sequence with mouse IgG2a Fc domain), if required was removed from storage at −80° C. and thawed at room temperature. Antibody vials were immediately transferred into wet ice after thawing. Compounds of Formula (I) were further diluted in DMSO as per experimental requirements.
Formulation composition: The formulation composition was Saline:DMSO:PBS. Saline was added based on the quantity required and then stock solution of the compound of Formula (I) prepared in DMSO, followed by addition of antibody in PBS. Formulations were incubated at room temperature for 30 minutes before administration to the mouse. DMSO was used at 1 to 2% (v/v) in the final formulation.
After bleeding, each mouse was sacrificed by cervical dislocation.
CCR2 depletion in peripheral blood was determined by flow cytometry. Briefly, peripheral blood was collected from all animals at the end of study termination and processed. Blood samples were lysed using 1× RBC Lysis buffer and the resulting cell pellet was washed twice in FACS buffer (HBSS containing 5% FBS). Cells were subjected to Fc blocking using mouse Fc block from Biolegend (Trustain, anti-mouse CD16/32, Cat: 101319) to block non-specific binding followed by surface staining for immune markers (CD45, CD3, CD11b, Ly6C, human CCR2). Surface staining was done for 30 minutes in ice and cells were washed twice to remove unbound antibodies. Cells were stained with 7AAD to determine viability and acquired on BD FACSVerse flow cytometer. Appropriate FMO controls and single-color controls were included in the experiment for gating and compensation respectively.
Percent depletion of CD11b+Ly6c+ Hi cells and CCR2 expression for the different treatment groups was determined.

human alpha1 nicotinic acetylcholine (nACh) receptor, sequence (P02708 21-457): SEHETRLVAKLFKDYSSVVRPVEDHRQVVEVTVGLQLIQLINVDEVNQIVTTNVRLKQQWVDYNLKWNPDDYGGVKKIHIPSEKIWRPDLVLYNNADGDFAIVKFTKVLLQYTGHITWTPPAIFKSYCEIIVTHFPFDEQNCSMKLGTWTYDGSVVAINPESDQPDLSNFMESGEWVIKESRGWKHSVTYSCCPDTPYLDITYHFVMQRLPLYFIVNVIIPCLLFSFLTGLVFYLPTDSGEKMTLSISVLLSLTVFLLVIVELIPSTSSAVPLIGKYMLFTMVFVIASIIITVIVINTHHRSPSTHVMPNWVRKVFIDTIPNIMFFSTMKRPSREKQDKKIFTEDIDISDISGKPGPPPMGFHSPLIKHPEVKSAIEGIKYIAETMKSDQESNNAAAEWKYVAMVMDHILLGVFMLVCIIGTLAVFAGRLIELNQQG
human alpha1 nicotinic acetylcholine (nACh) receptor, sequence (P11230 24-501 partner): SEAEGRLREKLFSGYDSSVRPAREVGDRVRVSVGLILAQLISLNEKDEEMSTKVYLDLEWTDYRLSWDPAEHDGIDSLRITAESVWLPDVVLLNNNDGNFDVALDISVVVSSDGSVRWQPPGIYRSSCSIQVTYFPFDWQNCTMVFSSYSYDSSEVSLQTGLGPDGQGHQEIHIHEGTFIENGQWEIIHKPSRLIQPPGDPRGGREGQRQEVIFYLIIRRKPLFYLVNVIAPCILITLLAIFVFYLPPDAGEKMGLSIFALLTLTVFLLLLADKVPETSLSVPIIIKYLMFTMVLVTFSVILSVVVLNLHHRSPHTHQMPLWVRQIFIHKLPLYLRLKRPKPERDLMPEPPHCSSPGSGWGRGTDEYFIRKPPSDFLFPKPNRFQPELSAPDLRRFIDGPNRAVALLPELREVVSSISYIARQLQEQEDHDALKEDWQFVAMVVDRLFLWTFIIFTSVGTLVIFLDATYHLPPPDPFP
human alpha1 nicotinic acetylcholine (nACh) receptor, sequence (Q07001 22-517): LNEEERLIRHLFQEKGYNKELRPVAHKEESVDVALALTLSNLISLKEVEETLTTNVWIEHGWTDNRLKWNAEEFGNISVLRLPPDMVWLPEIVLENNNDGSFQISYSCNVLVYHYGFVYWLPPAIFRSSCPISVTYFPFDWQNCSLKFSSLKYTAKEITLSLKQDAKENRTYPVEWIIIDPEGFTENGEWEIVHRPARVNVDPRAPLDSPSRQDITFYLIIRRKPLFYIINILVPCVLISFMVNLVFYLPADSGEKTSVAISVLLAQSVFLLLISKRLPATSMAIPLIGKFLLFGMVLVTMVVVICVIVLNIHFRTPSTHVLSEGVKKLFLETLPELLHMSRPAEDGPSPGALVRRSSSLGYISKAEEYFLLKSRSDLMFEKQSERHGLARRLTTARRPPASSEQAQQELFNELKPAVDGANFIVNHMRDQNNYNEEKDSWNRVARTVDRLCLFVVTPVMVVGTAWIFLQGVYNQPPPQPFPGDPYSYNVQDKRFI

For CC(C)N(C)[C@@H]1CC[C@H](N2CC[C@H](Nc3ncnc4ccc(C(F)(F)F)cc34)C2=O)[C@H](NC(=O)C2CCC(N3CCC(S(=O)(=O)NCCCCCCNC(=O)[C@H]4CC(=O)N(C)[C@@H]4c4cccnc4)CC3)CC2)C1 (single isomer, unassigned) [compound 149], the EC50 [1] was 0.251 nM.
For CN1C(=O)C[C@H](C(=O)NCCCOCCCNC(=O)CCCC(=O)NC2CCC(C(=O)N[C@@H]3C[C@H](NC(C)(C)C)CC[C@@H]3N3CC[C@H](Nc4ncnc5ccc(C(F)(F)F)cc45)C3=O)CC2)[C@H]1c1cccnc1 (stereo partly drawn) [Example 22], the “ADCC Reporter Assay pEC50” value [2] was 9 and 9.3, the EC50 [1] was 0.631 nM and the “pKd of Antibody for ARM Compound of Formula (I)” value (“pKd of Antibody” for short) [3] was 9.2495.
CC(C)N(C)[C@@H]1CCC(N2CC[C@H](Nc3ncnc4ccc(C(F)(F)F)cc34)C2=O)[C@H](NC(=O)CCOCCOCCOCCOCCNC(=O)[C@H]2CC(=O)N(C)[C@@H]2c2cccnc2)C1 (stereo partly drawn) [Example 39] was tested, and the EC50 [1] was 2510 nM.
With CC(C)N(C)[C@@H]1CCC(N2CC[C@H](Nc3ncnc4ccc(C(F)(F)F)cc34)C2=O)[C@H](NC(=O)CCOCCOCCOCCOCCOCCNC(=O)[C@H]2CC(=O)N(C)[C@@H]2c2cccnc2)C1 (stereo partly drawn) [Example 40] the EC50 [1] was 5.01 nM, the Emax at 10 µM [4] was 24.7% and the IC50 [4] was over 10000 nM. For the same molecule, the “pKd of Antibody” value [3] was 9.4525.
CC(C)N(C)[C@@H]1CCC(N2CC[C@H](Nc3ncnc4ccc(C(F)(F)F)cc34)C2=O)[C@H](NC(=O)CCOCCOCCOCCOCCOCCOCCNC(=O)[C@H]2CC(=O)N(C)[C@@H]2c2cccnc2)C1 (stereo partly drawn) [Example 41] gave an EC50 [1] of 2.51 nM, an Emax at 10 µM [4] of 20.1% and an IC50 [4] of over 10000 nM. For the same molecule, the “pKd of Antibody” value [3] was 9.3615.
Work on CC(C)N(C)C1CCC(N2CC[C@H](Nc3ncnc4ccc(C(F)(F)F)cc34)C2=O)[C@H](N[C@H]2CC[C@@H](C(=O)NCCOCCOCCOCCOCCNC(=O)[C@H]3CC(=O)N(C)[C@@H]3c3cccnc3)CC2)C1 (stereo partly drawn) [Example 67] yielded an EC50 [1] of 3.98 nM.
With CC(C)N(C)[C@@H]1CC[C@H](N2CC[C@H](Nc3ncnc4ccc(C(F)(F)F)cc34)C2=O)[C@H](NC2CCN(C(=O)CCOCCOCCOCCOCCNC(=O)[C@H]3CC(=O)N(C)[C@@H]3c3cccnc3)CC2)C1 [Example 69] the EC50 [1] was 1.58 nM, the “% Depletion of CCR2 expressing cells” value [5] was 98.59% and the “pKd of Antibody” value [3] was 9.321.
CC(C)N(C)[C@@H]1CC[C@H](N2CC[C@H](Nc3ncnc4ccc(C(F)(F)F)cc34)C2=O)[C@H](NC(=O)[C@H]2CC[C@H](N3CCN(S(=O)(=O)C4CCN(C(=O)[C@H](C)NC(=O)[C@H]5CC(=O)N(C)[C@@H]5c5cccnc5)CC4)CC3)CC2)C1 [Example 70, (2S,3S)-N-((S)-1-(4-((4-((1R,4S)-4-(((1R,2S,5R)-5-(isopropyl(methyl)amino)-2-((S)-2-oxo-3-((6-(trifluoromethyl)quinazolin-4-yl)amino)pyrrolidin-1-yl)cyclohexyl)carbamoyl)cyclohexyl)piperazin-1-yl)sulfonyl)piperidin-1-yl)-1-oxopropan-2-yl)-1-methyl-5-oxo-2-(pyridin-3-yl)pyrrolidine-3-carboxamide] was tested, and the EC50 [1] was 0.1 nM and the “% Depletion of CCR2 expressing cells” value [5] was 30.51%.
CC(C)N(C)[C@@H]1CC[C@H](N2CC[C@H](Nc3ncnc4ccc(C(F)(F)F)cc34)C2=O)[C@H](NC(=O)C2CCN(C3CCN(C(=O)CCCCCCCNC(=O)[C@@H]4CC(=O)N(C)[C@H]4c4cccnc4)CC3)CC2)C1 [Example 154, N-((1R,2S,5R)-5-(Isopropyl(methyl)amino)-2-((S)-2-oxo-3-((6-(trifluoromethyl)quinazolin-4-yl)amino)pyrrolidin-1-yl)cyclohexyl)-1′-(8-((2R,3R)-1-methyl-5-oxo-2-(pyridin-3-yl)pyrrolidine-3-carboxamido)octanoyl)-[1,4′-bipiperidine]-4-carboxamide] showed an EC50 ([2]; read-out: ADCC Reporter Assay pEC50 (converted)) of 2.51 nM and an EC50 [1] of 0.501 nM.
Work on CC(C)N(CCOCCOCCC(=O)N[C@H]1CC[C@@H](C(=O)N[C@@H]2C[C@H](N(C)C(C)C)CC[C@@H]2N2CC[C@H](Nc3ncnc4ccc(C(F)(F)F)cc34)C2=O)CC1)C(=O)CCNC(=O)[C@H]1CC(=O)N(C)[C@@H]1c1ccccc1 [Example 178] yielded an EC50 [1] of 0.398 nM.
For CC(C)N(C)[C@@H]1CC[C@H](N2CC[C@H](Nc3ncnc4ccc(C(F)(F)F)cc34)C2=O)[C@H](NC(=O)[C@H]2CC[C@@H](N3CCN(S(=O)(=O)C4CCN(C(=O)[C@H](C)NC(=O)[C@H]5CC(=O)N(C)[C@@H]5c5cccnc5)CC4)CC3)CC2)C1 [compound 71], the EC50 [1] was 0.794 nM and the “% Depletion of CCR2 expressing cells” value [5] was 35.25%.
